Test results: patent US4153727A, “Pharmaceutical compositions of a prostaglandin compound for rectal use in treating asthma” (priority 1977, dated 1979)

Assays:
histamine [1] = test: antiasthmatic effect, aerosol: protection against histamine-induced sneezing; format: in vivo; settings: aerosol 15 sec; histamine aerosol 0.1%; guinea-pigs
Method: (§1) Guinea-pigs were placed in a chamber and sprayed for 10 sec. with an aerosol of histamine solution (0.1%) and onset of sneezing was recorded. Animals that sneezed within 70-100 sec. were selected as controls. These animals were sprayed for 15 sec. with an aerosol of the test compounds. After 45 sec., the animals were sprayed with histamine and observed for 3 min.

histamine [2] = test: antiasthmatic effect, oral: protection against histamine-induced sneezing; format: in vivo; settings: Cavia porcellus, 0.5 h, 30 min before histamine spray, guinea-pigs
Method: as §1
Guinea-pigs were sprayed for 10 sec with histamine 30 min after oral administration of the test compounds and observed for 3 min. The percent of amimals protected was determined.

histamine [3] = settings: earlier patents; cited from earlier work
[4] = diarrhea-producing effect, oral; settings: guinea pig, in vivo, guinea-pigs; for TD50: observed at 2-5 hrs and next morning, read-out: (A) Diarrhea-producing effect (b) ED50; for selectivity ratio: read-out: b/a (diarrhea-producing ED50 / oral antiasthmatic ED50)
Method: Ii. diarrhea-producing Effect
Test compounds were administered orally to guinea-pigs. The appearance of diarrhea (loose or watery feces) at every 2 hrs, 3 hrs, 4 hrs and 5 hrs period and next morning were noted.

[5] = stability as inhalant (aerosol); format: physicochemical; settings: used as an inhalant (aerosol)
histamine [6] = settings: earlier patents; cited from earlier work; remark: listed apart in the source
hystamine = test: Experiment 1: bronchodilator activity by hystamine spray method, rectal vs oral; format: in vivo, male guinea pigs; settings: 30 min; for Bronchodilator activity, effective / animals tested: oral (control)
Method: A suppository prepared using the compound of formula I and the oily base or water-soluble base was applied by rectal administration (this invention) to male guinea pigs fasted for 24 hours, each weighing about 550 g. On the other hand, a solution of the compound of formula I in physiological saline solution was applied by oral administration to guinea pigs under the same condition as above for control. After 30 minutes from the administration, the bronchodilator activity of the medicament was determined by a hystamine spray method.

[7] = test system: respiratory tract contraction induced by hystamine; test: 50% inhibition of respiratory tract contraction induced by hystamine, oral vs intravenous; format: in vivo; settings: 50% inhibition of hystamine-induced respiratory tract contraction
[8] = rectal administration: absorption, antitussive effect, diarrhea; format: in vivo
[9] = test system: bronchoconstriction induced by intravenous injection of histamine; test: effect on air-way resistance (Konzett and Rossler), intraduodenal administration; format: in vivo, guinea-pig; settings: Cavia porcellus, 0.5 h, 30 min before i.v. histamine 3 μg/kg, anesthetized guinea-pigs, read-out: (B) Effect on air-way resistance ED50
Method: Iii. effect on Air-way Resistance
The air-way resistance of the guinea-pig lung was determined by the method of Konzett and Rossler (Arch. exp. Path. Pharmak., 195, 71-74(1940)). The bronchodilator activity of prostaglandins were expressed in terms of protective effect against bronchoconstriction induced by intravenous injection of histamine (3 μg/kg). Histamine was injected 30 min after intraduodenal administration of test compound to urethane anesthetized and artificially ventilated guinea-pigs.

Structure (SMILES) | Antiasthmatic effect, Aerosol ED50 (histamine [1]) | ED50 (histamine [2]) | antiasthmatic effect by oral administration (in words) (histamine [3]) | TD50 [4] | selectivity ratio [4] | other results
COCCCCC[C@H](O)/C=C/[C@H]1[C@H](O)CC(=O)[C@@H]1C/C=C\CCCC(=O)O [20-methoxy-PGE2, 11α,15(S)-dihydroxy-20-methoxy-9-oxo-5(cis)-13(trans)Prostadienoic acid] | 0.15 µg/mL | > 0.8 mg/kg | does not show antiasthmatic effect |  |  | 
COCCCC[C@H](C)[C@H](O)/C=C/[C@H]1[C@H](O)CC(=O)[C@@H]1C/C=C\CCCC(=O)O [compound of formula I, 11α,15(S)-dihydroxy-20-methoxy-16(S)-methyl-9-oxo-5(cis),13(trans)-prostadienoic acid] |  | 0.71 mg/kg | excellent antiasthmatic effect | 0.14 mg/kg | 20 | stability of the medicament [5]: difficult to maintain the stability; antiasthmatic effect by aerosol administration (in words) (histamine [6]): excellent antiasthmatic effect; Bronchodilator activity, effective / animals tested (hystamine; 3.1 μg/kg): 1/6; Bronchodilator activity, effective / animals tested (hystamine; 6.3 μg/kg): 3/6; Bronchodilator activity, effective / animals tested (hystamine; 12.5 μg/kg): 4/6; Bronchodilator activity, effective / animals tested (hystamine; 25 μg/kg): 4/6; Bronchodilator activity, effective / animals tested (hystamine; 50 μg/kg): 5/6; Bronchodilator activity ED50 (hystamine; oral administration (control)): 0.007 mg/kg; effective amount (ED50) oral relative to intravenous injection [7]: about 2400 times; absorption through the intestine [8]: unexpectedly absorbed through the intestine; antitussive effect [8]: exhibits an antitussive effect; diarrhea [8]: does not cause diarrhea
CCCCC[C@H](O)/C=C/[C@H]1[C@H](O)CC(=O)[C@@H]1C/C=C\CCCC(=O)O [Prostaglandin E2] | 0.15 µg/mL | > 0.8 mg/kg |  |  |  | ED50 [9]: > 0.8 mg/kg
CCCC[C@H](C)[C@H](O)/C=C/[C@H]1[C@H](O)CC(=O)[C@@H]1C/C=C\CCCC(=O)O [16(S)-methyl-PGE2, 11α, 15(S)-dihydroxy-16(S)-methyl-9-oxo-5(cis)-13(trans)prostadienoic acid] | 0.009 µg/mL | 0.025 mg/kg |  | 0.1 mg/kg | 4 | 
CCCC[C@@H](C)[C@H](O)/C=C/[C@H]1[C@H](O)CC(=O)[C@@H]1C/C=C\CCCC(=O)O [16(R)-methyl-PGE2, 11α,15(S)-dihydroxy-16(R)-methyl-9-oxo-5(cis)-13(trans)prostadienoic acid] | 0.011 µg/mL | 0.0175 mg/kg |  | 0.025 mg/kg | 1.43 | 
